Marks after values point to notes of the source that are not given here.
Assays:
[1] = test system: wild-type canola (Nex710); experiment: Field tolerance of canola, wild-type; type: in vivo, Brassica napus
Protocol: Field level tolerance trial was conducted on two AAD-12 (v1) events 3759(20)018.001 and 3759(18)030.001 and a wild-type canola (Nex710) in Fowler, Ind. The experimental design was a randomized complete block design with 3 replications. Herbicide treatments were 2,4-D (dimethylamine salt) at 280, 560, 1120, 2240 and 4480 g ac/ha, triclopyr at 840 g ae/ha, fluroxypyr at 280 g ae/ha and an untreated control. Within each herbicide treatment, single 20 ft row/event for event 3759(18)030.0011, 3759(18)018.001 and wild-type line (Nex710) were planted with a 4 row drill on 8 inch row spacing. Herbicide treatments were applied when canola reached the 4-6 leaf stage using compressed air backpack sprayer delivering 187 L/ha carrier volume at 130-200 kpa pressure. Visual injury ratings were taken at 7, 14 and 21 days after application.

[2] = test system: AAD-1 (v3) (pDAB721) T2 tobacco plants; experiment: Auxinic herbicide cross tolerance of stacked tobacco, AAD-1 T2; type: in vivo, Nicotiana tabacum
Protocol: (§1) Homozygous AAD-12 (v1) (pDAS1580) and AAD-1 (v3) (pDAB721) plants (see PCT/US2005/014737 for the latter) were both reciprocally crossed and F1 seed was collected. The F1 seed from two reciprocal crosses of each gene were stratified and treated 4 reps of each cross were treated under the same spray regimen as used for the other testing with one of the following treatments: 70, 140, 280 g ac/ha fluroxypyr (selective for the AAD-12 (v1) gene); 280, 560, 1120 g ae/ha R-dichloroprop (selective for the AAD-1 (v3) gene); or 560, 1120, 2240 g ae/ha 2,4-D DMA (to confirm 2,4-D tolerance). Homozygous T2 plants of each gene were also planted for use as controls. Plants were graded at 3 and 14 DAT.

[3] = test system: AAD-12 x AAD-1 F1 cross tobacco; experiment: Auxinic herbicide cross tolerance of stacked tobacco, F1 cross; type: in vivo, Nicotiana tabacum; conditions: AAD-12 (v1) x AAD (v3) F1
Protocol: as §1

[4] = test system: AAD-12 (v1) pDAB4101 corn events (4101(0)003.R.003.AF and 4101(0)005.R001.AF); experiment: Field tolerance of corn: visual injury and brace root injury, AAD-12 events; type: in vivo, Zea mays; conditions: for % Visual Injury 14DAT / Brace Root Injury Rating (0-10 scale) 28DAT: 280 g ae/ha
Protocol: Seeds were planted with cone planter on 40-inch row spacing at Wayside and 30 inch spacing at Fowler. […] Herbicide treatments were 2,4-D (dimethylamine salt) at 1120, 2240 and 4480 g ae/ha, triclopyr at 840 g ae/ha, fluroxypyr at 280 g ae/ha and an untreated control. The AAD-12 (v1) events contained the AHAS gene as a selectable marker. The F2 corn events were segregating so the AAD-12 (v1) plants were treated with imazethapyr at 70 g ae/ha to remove the null plants. Herbicide treatments were applied when corn reached the V6 stage using compressed air backpack sprayer delivering 187 L/ha carrier volume at 130-200 kpa pressure. […]

[5] = test system: AAD-12 (v1) T1 tobacco plants; experiment: Cross tolerance of T1 tobacco to phenoxy and pyridyloxy auxin herbicides; type: in vivo, Nicotiana tabacum
Text: Two to four T0 individuals surviving high rates of 2,4-D and fluroxypyr were saved from each event and allowed to self fertilize in the greenhouse to give rise to T1 seed. The T1 seed was stratified, and sown into selection trays much like that of Arabidopsis (Example 7.4), followed by selective removal of untransformed nulls in this segregating population with 560 g ai/ha glufosinate (PAT gene selection). Survivors were transferred to individual 3-inch pots in the greenhouse. These lines provided high levels of resistance to 2,4-D in the T0 generation. Improved consistency of response is anticipated in T1 plants not having come directly from tissue culture. These plants were compared against wildtype KY160 tobacco. All plants were sprayed with a track sprayer set at 187 L/ha. The plants were sprayed from a range of 140-2240 g ac/ha 2,4-D dimethylamine salt (DMA), 70-1120 g ace/ha triclopyr or 35-560 g ae/ha fluroxypyr. All applications were formulated in water. Each treatment was replicated 2-4 times. Plants were evaluated at 3 and 14 days after treatment. Plants were assigned injury rating with respect to stunting, chlorosis, and necrosis. The T1 generation is segregating, so some variable response is expected due to difference in zygosity.

[6] = test system: Pat/Cry1f-Control Arabidopsis; experiment: Foliar-applied auxinic herbicides on transformed control Arabidopsis; type: in vivo, Arabidopsis thaliana; conditions: Pyridyloxyacetic auxins
Protocol: The ability of AAD-12 (v1) to provide resistance to other aryloxyalkanoate auxin herbicides in transgenic Arabidopsis was determined by foliar application of various substrates. T2 generation Arabidopsis seed was stratified, and sown into selection trays much like that of Arabidopsis (Example 6.4). A transformed-control line containing PAT and the insect resistance gene Cry1F was planted in a similar manner. Seedlings were transferred to individual 3-inch pots in the greenhouse. All plants were sprayed with the use of a track sprayer set at 187 L/ha. The plants were sprayed with a range of pyridyloxyacetate herbicides: 280-2240 g ae/ha triclopyr (Garlon 3A, Dow AgroSciences) and 280-2240 g ae/ha fluroxypyr (Starane, Dow AgroSciences); and the 2,4-D metabolite resulting from AAD-12 activity, 2,4-dichlorophenol (DCP, Sigma) (at a molar equivalent to 280-2240 g ac/ha of 2,4-D, technical grade DCP was used). All applications were formulated in water. Each treatment was replicated 3-4 times. Plants were evaluated at 3 and 14 days after treatment.

[7] = test system: AAD-12 (v1) (pDAS1580) T2 tobacco plants; experiment: Auxinic herbicide cross tolerance of stacked tobacco, AAD-12 T2; type: in vivo, Nicotiana tabacum
Protocol: as §1

Structure (SMILES): Nc1c(Cl)c(F)nc(OCC(=O)O)c1Cl [Fluroxypyr]
- visual injury ([1]; Fluroxypyr at 280 g ae/ha, 14DAA): 37%
- % Visual Injury at 14 DAT ([1]; Wild Type (Nex710), 280 GM AE/HA): 37 ab %
- Average % injury 14 DAT ([2]; 70 g ae/ha): 40%
- Average % injury 14 DAT ([2]; 140 g ae/ha): 60%
- Average % injury 14 DAT ([3]; 70 g ae/ha): 0%
- Average % injury 14 DAT ([3]; 140 g ae/ha): 0%
- % Visual Injury 14DAT ([4]; AAD-12 4101(0)003.R.003.AF): 1%
- % Visual Injury 14DAT ([4]; AAD-12 4101(0)005.001.AF): 5%
- Brace Root Injury Rating (0-10 scale) 28DAT ([4]; AAD-12 event 4101(0)003.R.003.AF): 0
- Brace Root Injury Rating (0-10 scale) 28DAT ([4]; AAD-12 event 4101(0)005.001.AF): 0
- brace root injury ([4]; Fluroxypyr at 280 g ae/ha): no brace root injury
- visual injury, average ([4]; Fluroxypyr at 280 g ae/ha, 5DAT): 8%
- injury ([5]; 35-560 g ae/ha fluroxypyr): greatest injury
- Average % Injury of Replicates 14 DAT ([5]; T1 1580(1)-004, 35 g ae/ha): 0%
- Average % Injury of Replicates 14 DAT ([5]; T1 1580(1)-004, 140 g ae/ha): 0%
- Average % Injury of Replicates 14 DAT ([5]; T1 1580(1)-004, 560 g ae/ha): 3%
- Average % Injury of Replicates 14 DAT ([5]; T1 1580(1)-018, 35 g ae/ha): 8%
- Average % Injury of Replicates 14 DAT ([5]; T1 1580(1)-018, 140 g ae/ha): 10%
- Average % Injury of Replicates 14 DAT ([5]; T1 1580(1)-018, 560 g ae/ha): 18%
- Ave % Injury 14DAT ([6]; 280 g ae/ha foliar): 75* %
- Ave % Injury 14DAT ([6]; 560 g ae/ha foliar): 75* %
- Ave % Injury 14DAT ([6]; 1120 g ae/ha foliar): 75* %
- Ave % Injury 14DAT ([6]; 2240 g ae/ha foliar): 75* %
- Average % injury 14 DAT ([7]; 70 g ae/ha): 0%
- Average % injury 14 DAT ([7]; 140 g ae/ha): 0%
